Bridges are numbered along the chain shown (N, C = ends). [ ]: non-standard residue; d: D form. Aib = CC(C)(N)C(=O)O
Legend:
[1] = target: T1, plasma- and platelet TFPI (Homo sapiens, UniProt P10646); assay: Thrombin generation in platelet-poor and platelet-rich plasma; format: biochemical
T1 construct: from tissue; donor PPP and PRP
T1 sequence (P10646 29-304): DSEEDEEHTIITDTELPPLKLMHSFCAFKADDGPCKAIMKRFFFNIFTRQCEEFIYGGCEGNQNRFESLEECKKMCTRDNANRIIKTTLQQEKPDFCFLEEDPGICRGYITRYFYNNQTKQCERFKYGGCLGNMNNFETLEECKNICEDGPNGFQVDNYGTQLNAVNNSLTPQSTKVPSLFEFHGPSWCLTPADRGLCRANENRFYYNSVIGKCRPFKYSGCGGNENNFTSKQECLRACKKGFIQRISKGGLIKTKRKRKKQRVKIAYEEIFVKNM

[2] = target: T2, HUVEC TFPI (Homo sapiens, UniProt P10646); assay: Cell-based extrinsic tenase assay (HUVEC); conditions: relative to 100 nM polyclonal anti-human TFPI antibody = 100%
T2 construct: endogenous in cells; host or cells: HUVEC stimulated with TNFα
T2 sequence (P10646 29-304): T1 sequence (P10646 29-304)

[3] = tested on: TFPI; assay: FXa inhibition assay (human TFPI); conditions: all human TFPI concentrations tested (up to 10 nM)
[4] = in vitro; conditions: human, plasma
[5] = target: T3, platelet TFPI (Homo sapiens, UniProt P10646); assay: TF-FVIIa-catalysed FX activation inhibited by platelet TFPI; format: biochemical; conditions: 50 nM peptide
T3 construct: from tissue; donor PPP and PRP
T3 sequence (P10646 29-304): T1 sequence (P10646 29-304)

[6] = target: T4, fl-TFPI / ASGPR (Homo sapiens, UniProt P10646); assay: BIAcore: fl-TFPI binding to ASGPR in presence of peptide; conditions: 1 μM peptide
T4 sequence (P10646 29-304): T1 sequence (P10646 29-304)

[7] = tested on: TFPI; assay: Extrinsic tenase inhibition assay; conditions: Table 19; 0.0625 nM TFPI
[8] = tested on: FVIII-inhibited whole blood; assay: Rotation thromboelastography (ROTEM) in whole blood; parameters: species or system human; conditions: concentrations above 100 nM; 2 nM and 10 nM full length TFPI added
[9] = target: T5, TFPI (Homo sapiens, UniProt P10646); assay: koff assay; format: binding; conditions: 24 hour incubation
T5 sequence (P10646 29-304): T1 sequence (P10646 29-304)

[10] = target: T5, TFPI; assay: Plasma-based thrombin generation assay (calibrated automated thrombography), human plasma; conditions: 50-100 nM peptide; 10 nM flTFPI, FVIII-inhibited plasma
[11] = target: T5, TFPI; assay: FXa inhibition by TFPI in presence of Ca2+, phospholipid and protein S; format: biochemical; conditions: 50 nM peptide; PL+Ca2++protein S
Description: The effects of TFPI binding peptides on the anticoagulant activity of TFPI was tested in model systems (inhibition of FXa and TF-FVIIa-catalysed FX activation by TFPI) and in plasma (NP, PPP, PRP or TFPI-depleted plasma reconstituted with recombinant- or platelet-TFPI or platelets). […] […])/kobs in which At is absorbance at 405 nm at time t; A0 is initial absorbance at 405 nm; vs is final steady-state velocity; v0 is initial velocity; kobs is apparent rate constant for the transition from v0 to vs (FXa-TFPI to FXa-TFPI*). The values v0 and vs relative to rates of chromogenic substrate conversion by FXa in the absence of TFPI, represent the extent of loose and tight FXa-TFPI complex formation.

[12] = tested on: neutrophil elastase; assay: Proteolytic degradation of fl-TFPI by neutrophil elastase; format: biochemical, human; conditions: 1 μM peptide, 5 nM fl-TFPI, 5 nM elastase, up to 60 minutes
[13] = tested on: cynomolgus TFPI 1-160; assay: FXa inhibition assay with cynomolgus monkey TFPI 1-160; format: biochemical
[14] = target: T6, fl-TFPI / LRP (Homo sapiens, UniProt P10646); assay: BIAcore: fl-TFPI binding to LRP in presence of peptide; conditions: 1 μM peptide, 10 nM fl-TFPI
T6 sequence (P10646 29-304): T1 sequence (P10646 29-304)
T6 sequence (Q07954 852-1182 partner limits assumed): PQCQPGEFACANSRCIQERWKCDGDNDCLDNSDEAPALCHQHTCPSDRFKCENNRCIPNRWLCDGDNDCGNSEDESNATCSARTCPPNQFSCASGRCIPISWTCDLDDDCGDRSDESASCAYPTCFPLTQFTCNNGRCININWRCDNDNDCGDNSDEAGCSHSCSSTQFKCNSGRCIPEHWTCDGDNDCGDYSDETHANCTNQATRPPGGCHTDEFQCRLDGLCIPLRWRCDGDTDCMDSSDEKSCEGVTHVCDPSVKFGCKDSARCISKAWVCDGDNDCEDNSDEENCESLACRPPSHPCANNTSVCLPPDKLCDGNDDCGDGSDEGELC

Ac-FQSK[dP]NVHVDGYFERL[Aib]AKLSSSSSSSSSSSYYKWHCAMRDMKGTMTCVWVKF-NH2 (disulfide 37-48 (inferred)) [JBT2547]
enhancement of thrombin generation ([1]; PPP): 3-4 fold | concentration sufficient to fully inhibit TFPI ([1]; PPP and PRP): 5 to 10 nM | enhancement of thrombin generation ([1]; PRP with inhibitory FVIII antibody): 3 fold | concentration achieving full inhibition of TFPI [2]: about 10 nM | inhibition of TFPI activity [3]: 100% | remaining at 24 h [4]: 54% | blocking of platelet TFPI inhibition of TF-FVIIa-catalysed FX activation [5]: completely blocked the anticoagulant activity of TFPI | fl-TFPI interaction with ASGPR in presence of peptide [6]: interacted with ASGPR | Extrinsic Tenase Assay Maximal inhibition (%) [7]: 99% | restoration of coagulation with added full length TFPI [8]: fully restored normal coagulation of FVIII-inhibited whole blood | blocking of tracer JBT2271 binding after incubation [9]: continued to block binding of the tracer to TFPI | compensation of added flTFPI [10]: fully compensated the anticoagulant effect of 10 nM flTFPI | blocking of TFPI [11]: almost completely blocked TFPI | effect on proteolysis of fl-TFPI by neutrophil elastase [12]: proteolysis of fl-TFPI was blocked during the monitored time | reduction of EC50 compared to JBT1857 [13]: approximately 200 fold | reduction of EC50 compared to the combination of JBT1837 and JBT1857 [13]: ~10 fold | Cynomolgus Monkey TFPI 1-160 Maximal inhibition (%) ([13]; Table 20): 100% | fl-TFPI interaction with LRP in presence of peptide [14]: higher response than that observed for TFPI complexed with single peptides

Source: patent US10800816B2 (Baxalta GmbH, priority 2012, dated 2020)
